Results reported in US20240336622A1 (The Board of Regents of The University of Texas System, priority 2021, published 2024).
Read-outs that look alike come from different tables or passages of the source.

Columns and labels:
PARP1 = PARP1 trapping activity of nimbolide analogs (FIGS. 19, 20); type: cell-based; details: for PARP1 trapping by nimbolide analogs: FIGS. 19 and 20
UWB1 cells [1] = assay: cells
[2] = tested on: UWB1, A673, Fadu, H2058, H1048, MDA-MB-468 cells; assay: Cytotoxicity in cancer cell lines with different genetic background (cell titer glo); type: cell-based; details: 1 μM for 96 hours
From the text: Cells were then subjected to cell titer glo analysis. Data represent mean±SEM.

UWB1 cells [3] = tested on: UWB1 cells
H889 and H82 cells = assay: Sensitivity of Talazoparib-resistant small cell lung cancer cells; type: cell-based
[4] = read-out: IC50 (μM) UWB1 cells, UWB1 cell viability

SMILES | IC50 (UWB1 cells [1]; read-out: IC50 (μM) UWB1 cells) [µM] | IC50 (UWB1 cells [1]; [4]) [µM] | further results
CC[Si](CC)(CC)O[C@H]1C(=O)[C@H](CC(=O)OC)[C@@]2(C)C(=O)C=C[C@@]3(C)C(=O)O[C@@H]1[C@H]23 [S-39] | 1.18 | – | PARP1 trapping by nimbolide analogs (PARP1): induce PARP1 trapping
CNCc1ccc(-c2[nH]c3cc(F)cc4c3c2CCNC4=O)cc1 [Rucaparib, rucaparib] | – | – | sensitivity of cell lines (UWB1, A673, Fadu, H2058, H1048, MDA-MB-468) [2]: different degrees of sensitivity
O=C(c1cc(Cc2n[nH]c(=O)c3ccccc23)ccc1F)N1CCN(C(=O)C2CC2)CC1 [Olaparib, olaparib] | – | – | sensitivity of cell lines (UWB1, A673, Fadu, H2058, H1048, MDA-MB-468) [2]: different degrees of sensitivity
COC(=O)C[C@H]1[C@]2(C)C3=C(C)[C@H](c4ccoc4-c4ccc(O[Si](C)(C)C(C)(C)C)cc4)C[C@H]3O[C@@H]2[C@@H]2OC(=O)[C@]3(C)C=CC(=O)[C@@]1(C)[C@@H]23 [S-46] | – | 0.089 | trapping activity compared to nimbolide (PARP1; FIG. 19): more potent trapping activity; PARP1 trapping by nimbolide analogs (PARP1): induce PARP1 trapping; cytotoxicity against UWB1 cells (UWB1 cells [3]): excellent cytotoxicity
C=C1[C@H](O[C@H]2CCC(C)=C2I)[C@@H]2OC(=O)[C@]3(C)C=CC(=O)[C@@](C)([C@@H]23)[C@H]1CC(=O)OC [S-84] | – | 0.183 | PARP1 trapping by nimbolide analogs (PARP1): induce profound PARP1 trapping
C=C1[C@H](O[C@@H]2C[C@@H](c3ccoc3)C(C)=C2I)[C@@H]2OC(=O)[C@]3(C)C=CC(=O)[C@@](C)([C@@H]23)[C@H]1CC(=O)OC [S-26] | 0.226 | – | PARP1 trapping by nimbolide analogs (PARP1): induce profound PARP1 trapping
COC(=O)C[C@H]1[C@]2(C)C3=C(C)[C@@H](c4cccc(O[Si](C)(C)C(C)(C)C)c4)C[C@H]3O[C@@H]2[C@@H]2OC(=O)[C@]3(C)C=CC(=O)[C@@]1(C)[C@@H]23 [S-114] | 0.242 | – | –
Cn1ncnc1[C@H]1c2n[nH]c(=O)c3cc(F)cc(c23)N[C@@H]1c1ccc(F)cc1 [Talazoparib, talazoparib] | – | – | sensitivity of H889 and H82 cells (H889 and H82 cells): resistant
COC(=O)C[C@H]1[C@]2(C)C3=C(C)[C@H](c4ccoc4)C[C@H]3O[C@@H]2[C@H](OC(C)=O)[C@@H]2[C@]1(C)C(=O)C=C[C@@]2(C)C(=O)OC [S-64, nimbin] | – | > 10 | –
COC(=O)C[C@H]1[C@@H]2CC3=C(C)[C@H](C4CCCCC4)C[C@@H]3O[C@@H]2[C@@H]2OC(=O)[C@]3(C)C=CC(=O)[C@@]1(C)[C@@H]23 [S-105] | – | 0.2 | –
COC(=O)C[C@H]1[C@@H]2CC3=C(C)[C@H](c4ccc(OS(=O)(=O)C(F)(F)F)cc4)C[C@@H]3O[C@@H]2[C@@H]2OC(=O)[C@]3(C)C=CC(=O)[C@@]1(C)[C@@H]23 [S-130] | – | 0.225 | –
C=C1[C@H](O[C@H]2C[C@@H](c3ccoc3)C(C)=C2I)[C@@H]2OC(=O)[C@]3(C)C=CC(=O)[C@@](C)([C@@H]23)[C@H]1CC(=O)OC [S-27] | 0.415 | – | –
COC(=O)C[C@H]1[C@]2(C)C3=C(C)[C@H](C4=CC(=O)OC4OC(C)=O)C[C@H]3O[C@@H]2[C@@H]2OC(=O)[C@]3(C)C=CC(=O)[C@@]1(C)[C@@H]23 (some centres unmarked) [S-50] | – | 1.04 | –
COC(=O)C[C@H]1[C@]2(C)C3=C(C)[C@H](C4=CC(=O)OC4OC(C)=O)C[C@H]3O[C@@H]2[C@@H]2OC(=O)[C@]3(C)C=CC(=O)[C@@]1(C)[C@@H]23 (some centres unmarked) [S-51] | – | – | IC50 (UWB1 cells [3]; [4]): 0.954 µM
COC(=O)C[C@H]1[C@]2(C)C3=C(C)[C@H](c4ccc(O[Si](C)(C)C(C)(C)C)cc4)C[C@H]3O[C@@H]2[C@@H]2OC(=O)[C@]3(C)C=CC(=O)[C@@]1(C)[C@@H]23 [S-117] | 0.0788 | – | –
COC(=O)C[C@H]1[C@]2(C)C3=C(C)[C@H](c4cccc(O[Si](C)(C)C(C)(C)C)c4)C[C@H]3O[C@@H]2[C@@H]2OC(=O)[C@]3(C)C=CC(=O)[C@@]1(C)[C@@H]23 [S-112] | 0.219 | – | –
COC(=O)C[C@H]1[C@@H]2CC3=C(C)[C@H](c4ccc(-c5cc(C(C)(C)C)cc(C(C)(C)C)c5)cc4)C[C@@H]3O[C@@H]2[C@@H]2OC(=O)[C@]3(C)C=CC(=O)[C@@]1(C)[C@@H]23 [S-134] | – | 0.091 | –
COC(=O)C[C@H]1[C@]2(C)C3=C(C)[C@H](c4ccc(CO[Si](C)(C)C(C)(C)C)cc4)C[C@H]3O[C@@H]2[C@@H]2OC(=O)[C@]3(C)C=CC(=O)[C@@]1(C)[C@@H]23 [S-146] | 0.18 | – | –
COC(=O)C[C@H]1[C@@H]2CC3=C(C)[C@@H](C4CCCCC4)C[C@@H]3O[C@@H]2[C@@H]2OC(=O)[C@]3(C)C=CC(=O)[C@@]1(C)[C@@H]23 [S-106] | – | 0.16 | –
COC(=O)C[C@H]1[C@]2(C)C3=C(C)[C@@H](c4ccc(O[Si](C)(C)C(C)(C)C)cc4)C[C@H]3O[C@@H]2[C@@H]2OC(=O)[C@]3(C)C=CC(=O)[C@@]1(C)[C@@H]23 (stereo in doubt) [S-120] | 0.165 | – | –
COC(=O)C[C@H]1[C@]2(C)C3=C(C)[C@H](C4CCCCC4)C[C@H]3O[C@@H]2[C@@H]2OC(=O)[C@]3(C)C=CC(=O)[C@@]1(C)[C@@H]23 [S-104] | – | 0.21 | –
COC(=O)C[C@H]1[C@@H]2CC3=C(C)[C@H](c4ccc(C(C)(C)C)cc4)C[C@H]3O[C@@H]2[C@@H]2OC(=O)[C@]3(C)C=CC(=O)[C@@]1(C)[C@@H]23 [S-143] | – | 0.238 | –
C=C1[C@H](O)[C@@H]2OC(=O)[C@]3(C)C=CC(=O)[C@@](C)([C@@H]23)[C@H]1CC(=O)OC(C)(C)C [S-156] | – | 3.65 | –
COC(=O)C[C@H]1[C@]2(C)C3=C(C)[C@H](c4ccoc4-c4ccc5c(c4)OCO5)C[C@H]3O[C@@H]2[C@@H]2OC(=O)[C@]3(C)C=CC(=O)[C@@]1(C)[C@@H]23 [S-44] | – | 0.383 | –
COC(=O)C[C@H]1[C@]2(C)C3=C(C)[C@H](c4ccoc4)C[C@H]3O[C@@H]2[C@H](O)[C@@H]2[C@]1(C)C(=O)C=C[C@@]2(C)C(=O)OC [S-63, 6-deacetylnimbin] | – | > 10 | –
COC(=O)C[C@H]1[C@]2(C)C3=C(C)[C@H](c4ccc(C(C)(C)C)cc4)C[C@H]3O[C@@H]2[C@@H]2OC(=O)[C@]3(C)C=CC(=O)[C@@]1(C)[C@@H]23 [S-141] | – | 0.248 | –
